PMC11407620, “Repurposing auranofin and meclofenamic acid as energy-metabolism inhibitors and anti-cancer drugs” (PLOS ONE, 2024)
Like-named read-outs stand apart in the source and are kept apart here.

Assays:
[1] = system: Cervix HeLa cells; experiment: Cell proliferation, 24 h drug exposure; assay type: cell-based, human; details: Cervix HeLa, 24 h, read-out: IC50 for proliferation cell rate
Description: (§1) All metastatic (breast MDA-MB231, MDA-MB468, cervix HeLa, prostate PC3, colorectal HCT116, COLO205, glioblastoma U373), low-metastatic (breast MCF-7) cancer and non-cancer (fibroblast 3T3, cardiomyocytes H9C2) cell lines (American Type Culture Collection, Rockville, MD, USA) used in this study were cultured in Petri dishes in 20 mL of Dulbecco’s Modified Eagle’s Medium (DMEM, Sigma, MO, USA) supplemented with 10% fetal bovine serum (Biowest, Mexico) and 10,000 U penicillin/streptomycin (Sigma-Aldrich, MO, USA). […] For growth and maintenance, cells were incubated in 5% CO2/95% air at 37°C and kept until 80–90% of confluence was reached. Then, cells were harvested, washed by centrifugation and resuspended in Krebs-Ringer buffer (KR, 125 mM NaCl, 5 mM KCl, 25 mM Hepes, 1 mM MgCl2, 1 mM KH2PO4, 1.4 mM CaCl2, pH 7.4) for further use. For experimentation, cancer cells (3–5 x 10^6 cells) were cultured in DMEM (with 25 mM glucose) for 24 h in the absence of drugs. Afterwards, old-medium was replaced with fresh DMEM medium (with 25 mM glucose) in the absence (control, non-treated cells) or in the presence of logarithmic concentrations of Aur and MA for 24 h more, under the same culture conditions described above. Viability of cultured cells was determined by the trypan blue exclusion assay. The protein concentration was determined by the Lowry method.
(§2) For cell proliferation in the presence of drugs, cancer cells (20 x 10^3 cells/well) were grown in 96-well plates containing DMEM (Sigma-Aldrich) plus 10% bovine fetal serum for 24 h. […] The effect of these drugs on cell proliferation was determined in 96-well plates by the MTT (3-[4,5-dimethyl-thiazol-2-yl]-2,5-diphenyltetrazolium bromide) assay. The viability of cancer cells was > 95% after treatment with drugs.

[2] = system: Glioblastoma U373 cells; experiment: Cell proliferation, 24 h drug exposure; assay type: cell-based, human; details: Glioblastoma U373, 24 h, read-out: IC50 for proliferation cell rate
Description: as §1, §2

[3] = system: Breast MCF-7 cells; experiment: Cell proliferation, 24 h drug exposure; assay type: cell-based, human; details: Homo sapiens, MCF7; Breast MCF-7 (low metastatic); 24 h; read-out: IC50 for proliferation cell rate
Description: as §1
(§3) For cell proliferation in the presence of drugs, cancer cells (20 x 10^3 cells/well) were grown in 96-well plates containing DMEM (Sigma-Aldrich) plus 10% bovine fetal serum for 24 h. Afterwards, Aur or MA (0.01, 0.1, 10 and 100 μM) were added to the cell cultures and incubated for additional 24 h. The effect of these drugs on cell proliferation was determined in 96-well plates by the MTT (3-[4,5-dimethyl-thiazol-2-yl]-2,5-diphenyltetrazolium bromide) assay. The viability of cancer cells was > 95% after treatment with drugs.

[4] = system: Breast MDA-MB-231 cells; experiment: Cell proliferation, 24 h drug exposure; assay type: cell-based, human; details: Breast MDA-MB-231, 24 h, read-out: IC50 for proliferation cell rate
Description: as §1, §3

[5] = system: Colorectal HCT116 cells; experiment: Cell proliferation, 24 h drug exposure; assay type: cell-based, human; details: Homo sapiens, HCT-116; Colorectal HCT116; 24 h; read-out: IC50 for proliferation cell rate
Description: as §1, §3

[6] = system: Prostate PC3 cells; experiment: Cell proliferation, 24 h drug exposure; assay type: cell-based, human; details: Homo sapiens, PC-3; Prostate PC3; 24 h; read-out: IC50 for proliferation cell rate
Description: as §1, §3

[7] = system: 3T3 mouse fibroblasts; experiment: Cell proliferation, 24 h drug exposure (non cancer cells); assay type: cell-based; details: Fibroblast, 3T3 mouse fibroblasts (non cancer), read-out: IC50 for proliferation cell rate
Description: as §1, §3

[8] = system: H9C2 mouse cardiomyocytes; experiment: as above; assay type: cell-based; details: read-out: IC50 for proliferation cell rate
Description: as §1, §3

[9] = system: cancer cell lines; experiment: Cancer cell proliferation, pooled over the cell lines of Table 1; assay type: cell-based, human; details: for IC50: Homo sapiens, cancer cells, 24 h, read-out: IC50 values on cancer cell proliferation (range over cell lines)
Description: as §1, §2

[10] = system: non-cancer cells; experiment: Non-cancer cell proliferation, pooled; assay type: cell-based; details: Mus musculus, 24 h, read-out: IC50 values for non-cancer cells (range)
Description: as §1, with “For experimentation, cancer cells (3–5 x 10^6 cells) were cultured in DMEM (with 25 mM glucose) for 24 h in the absence of drugs. Afterwards, old-medium was replaced with fresh DMEM medium (with 25 mM glucose) in the absence (control, non-treated cells) or in the presence of logarithmic concentrations of Aur and MA for 24 h more, under the same culture conditions described above.” left out
as §2, with “The viability of cancer cells was > 95% after treatment with drugs.” left out

[11] = system: Breast MDA-MB-468 cells; experiment: Cell proliferation, 24 h drug exposure; assay type: cell-based, human; details: Homo sapiens; Breast MDA-MB-468; 24 h; read-out: IC50 for proliferation cell rate
Description: as §1, §3

[12] = system: Colorectal COLO205 cells; experiment: Cell proliferation, 24 h drug exposure; assay type: cell-based, human; details: Homo sapiens, COLO 205; Colorectal COLO205; 24 h; read-out: IC50 for proliferation cell rate
Description: as §1, §3

[13] = system: HeLa, MDA MB-231, and A548 (lung cancer) cells; experiment: Oxygen consumption of cancer cells; assay type: cell-based; details: Homo sapiens, MDA MB-231, A548 cells
Description: For oxidative phosphorylation (OxPhos) flux, cells (2–5 mg protein/mL) were incubated at 37°C in air saturated KR medium plus 5 mM glucose. To distinguish the oxygen consumption associated to OxPhos, the cells were incubated with 5 μM oligomycin (Sigma-Aldrich, MO, USA), a potent, specific, and permeable inhibitor of the mitochondrial ATP synthase. The net OxPhos rate was determined by using a Clark type electrode, as previously described and by using a high-resolution respirometer (Oroboros Instruments, Innsbruck, Austria) at 37°C. The contribution of OxPhos and glycolysis to the cellular ATP supply was determined, respectively, from the net OxPhos rate (oligomycin-sensitive respiration) multiplied by the ATP/O or P»/O2 ratio that corresponds to 2.5 or 5, and from the rate of lactate production, assuming a stoichiometry of 1 mol of ATP produced per 1 mol of lactate produced.

[14] = system: HeLa, U373, HCT116, MDA-MB-231 and MDA-MB-468 cells; experiment: Cell invasiveness, Boyden chamber; assay type: cell-based, human; details: perhexiline 4–20 μM; 24 h
Description: The 96-multiwell Boyden chambers (Merck Millipore, MA, USA) assay was performed for cellular invasiveness detection. Cancer cells (5 × 10^4 cells/well) were re-suspended in free-serum DMEM and placed in the upper Boyden chamber compartment. Free-serum DMEM was also placed in the lower compartment of the chamber. Afterwards, the Boyden chamber was placed at 37°C and 95% air/5% CO2 for 24 h. Invasive cancer cells within the lower chamber compartment were detected by using the calcein-AM (60 nM, 1 h) assay at 37°C. Calcein-fluorescence was measured at λexcitation = 485 nm and λemission = 520 nm in a Nunclon microplate reader (Roskilde, Denmark).
S1 Figure. Cancer invasiveness assay in metastatic cancer cells exposed to MA (A) and perhexiline (B) for 24 h. All cancer cell invasiveness was compared with MDA-MB-231 cells, which are cancer cells with the highest invasiveness ability. n=3; *P < 0.05 vs. MDA-MB-231 non-treated cells.

[15] = system: MDA-MB-231 and MDA-MB-468 cells; experiment: Cell migration, wound healing assay; assay type: cell-based; details: Homo sapiens; 15 μM perhexiline
Description: The wound healing assay was performed for cell migration detection. In petri dishes with full DMEM, cancer cells (5 x 10^6 cells/well) were cultured at 37°C under 95% air and 5% CO2 until 80–90% confluence was attained. Afterwards, cell culture was wounded with a 1 mL pipette tip, washed twice with PBS (155 mM NaCl, 1.5 mM KH2PO4, 2.7 mM NaH2PO4, pH 7.2) and subsequently incubated at 37°C with fresh non-serum DMEM. Cellular migration images were taken in an inverted microscope (Zeiss, Thornwood, NY, USA) after 0 and 24 h incubation time. Using a graduated reticule (Zeiss, Thornwood, NY, USA), cellular migration was assessed from the petri dish’s border to its center distance travelled.
S2 Figure. Migratory capacity in metastatic triple negative breast cancer cells exposed to perhexiline. n=3; *P < 0.05 vs. Control (Non-treated cells)

[16] = system: HeLa cells; parameters: method as in PMID 33333716; details: CP alone at doses of Table 5; cited from earlier work

Compound	IC50 ([1]; Homo sapiens) [µM]	IC50 ([2]; Homo sapiens, U373 MG) [µM]	IC50 [3] [µM]	IC50 ([4]; Homo sapiens) [µM]	IC50 [5] [µM]	IC50 [6] [µM]	IC50 [7] [µM]	IC50 [8] [µM]	IC50 [9] [µM]	IC50 [10] [µM]	IC50 [11] [µM]	IC50 [12] [µM]	inhibition at 10 µM [13] [%]	inhibition of cell invasiveness [14]	inhibition at 15 µM [15] [%]	effect on cancer cell proliferation ([9]; up to 500 μM, 24 h incubation)	IC50 [1] [µM]	IC50 [2] [µM]	IC50 [4] [µM]	effect on proliferation rate, OxPhos, cellular invasiveness [16]
CCC(C)(C)C(=O)O[C@H]1C[C@@H](C)C=C2C=C[C@H](C)[C@H](CC[C@@H]3C[C@@H](O)CC(=O)O3)[C@H]21 [Simvastatin]	31 ± 13	131 ± 41	126 ± 65	111 ± 45	147 ± 58	31 ± 16	222 ± 60	100 ± 32	31 to 147	100 to 222	–	–	–	–	–	–	–	–	–	–
C1CCC(C(CC2CCCCN2)C2CCCCC2)CC1 (stereo not drawn) [Perhexiline]	4 ± 3	18.5 ± 2	20.5 ± 10	11 ± 0.6	16 ± 7	–	81.5 ± 8	> 100	4 to 20	30 to 100	15 ± 0.8	16 ± 5	36 to 70	37–53%	50 to 60	–	–	–	–	–
CC1=C(CC(=O)O)c2cc(F)ccc2/C1=C\c1ccc([S+](C)[O-])cc1 (stereo not drawn) [Sulindac]	> 500	> 500	> 500	463	> 500	–	> 500	> 500	–	–	–	–	–	–	–	not significantly affected	–	–	–	–
N.N.[Cl][Pt][Cl] [CP, cisplatin]	–	–	–	–	–	–	–	–	–	–	–	–	–	–	–	–	> 1000	> 1000	72	no effect
